Target: T1, AtHscA1 (Arabidopsis thaliana, UniProt Q8GUM2)
T1 construct: gene HSP70-9
T1 sequence (Q8GUM2 47-682): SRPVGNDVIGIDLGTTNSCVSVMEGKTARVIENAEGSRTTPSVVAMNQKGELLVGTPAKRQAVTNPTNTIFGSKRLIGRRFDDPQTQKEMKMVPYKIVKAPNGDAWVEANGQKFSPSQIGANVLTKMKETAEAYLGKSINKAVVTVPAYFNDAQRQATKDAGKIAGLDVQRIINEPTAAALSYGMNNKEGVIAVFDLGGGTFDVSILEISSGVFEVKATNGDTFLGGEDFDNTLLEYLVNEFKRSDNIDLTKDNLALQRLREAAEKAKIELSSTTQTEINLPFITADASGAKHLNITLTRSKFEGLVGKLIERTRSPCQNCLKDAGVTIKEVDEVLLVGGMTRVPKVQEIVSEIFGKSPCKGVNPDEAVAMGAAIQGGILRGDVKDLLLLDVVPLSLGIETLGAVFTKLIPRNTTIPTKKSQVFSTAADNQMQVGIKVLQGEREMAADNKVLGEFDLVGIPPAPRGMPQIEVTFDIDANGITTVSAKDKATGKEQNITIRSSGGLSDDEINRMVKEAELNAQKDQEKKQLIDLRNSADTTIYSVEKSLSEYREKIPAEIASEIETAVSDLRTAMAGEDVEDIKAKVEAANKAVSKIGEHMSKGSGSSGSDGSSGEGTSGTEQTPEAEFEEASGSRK
Test: ATPase assay, [gamma-32P]ATP hydrolysis, TLC and phosphorimager
Format: biochemical
Conditions: 50 mM Tris-HCl pH 7.4, 50 mM NaCl, 10 mM KCl, 0.1 mM EDTA, 1.5 mM DTT; 2 µM protein; no co-chaperone; labelled compound

- Km: 49.5 µM
SMILES: Nc1ncnc2c1ncn2[C@@H]1O[C@H](COP(=O)(O)OP(=O)(O)OP(=O)(O)O)[C@@H](O)[C@H]1O [ATP]

Reference: PMC2764847, “Dual Localized AtHscB Involved in Iron Sulfur Protein Biogenesis in Arabidopsis” (PLoS ONE, 2009)
